In US20040120954A1, “Regulation of mt1-mmp activity” (priority 2000, published 2004):

What was measured:
MT1-MMP [1] = experiment: Activation of proMMP-2 by MT1-MMP on the cell surface of transfected cells (gelatin zymography); format: cell-based, human; details: transfected COS1 cells, exogenous purified proMMP-2 (FIGS. 2, 20)
Protocol: (§1) Gelatin zymography was conducted using an SDS-polyacrylamide gel (PAGE) containing gelatin (0.8 mg/ml) (Itoh, Y. et al., J. Biol. Chem., 273: 24360-24367, 1998). The samples were mixed with a SDS-PAGE loading buffer without a reducing agent and subjected to electrophoretic analysis at room temperature. Enzyme activity was visualized as a negative staining area with Coomassie Brilliant Blue R-250.
(§2) The expression construct for FLAG epitope ([…]-tagged MT1-MMP (MT1-F) described in Itoh, Y. et al., J. Biol. Chem., 274: 34260-34266, 1999 was used as a template to generate cDNA for MT1Cat-F (A Ile^318-Gly^535) by the PCR extension method of Ho et al., (Ho, S. N. et al., Gene, 77: 51-59, 1989). The cDNA was subcloned into pSG5 (Stratagene, CA, USA). The PCR-generated fragments were confirmed by DNA sequencing. COS1 cells were transfected with the expression vector for MT1-MMP mutant; MT1-F or MT1Cat-F, or a vector alone (Mock). Expression vectors for each protein were transfected using FuGENE6™ (Roche Molecular Biochemicals) according to the manufacturer's instructions. COS1 cells were seeded in 6-well plates at 1.5×10^5/well at 16 hrs before the transfection was performed. The COS1 cells were maintained in a HAM F-12 medium or DMEM containing 10% fetal bovine serum in a humidified incubator at 37° C. At 48 hrs after the transfection, the cells were collected for use in the experiments. The cells were incubated in the presence of purified proMMP-2 in a serum-free medium (0.25 μg/ml) at 37° C. for 18 hrs. Cell lysates were tested for the expression of the mutants, while culture supernatants were tested for the activation of proMMP-2.
(§3) To investigate roles of dimer formation upon the activation of proMMP-2, MT1-F was introduced into COS1 cells together with MT1PEX-F. The co-introduced cells were reacted with exogenously added proMMP-2. Thus, COS1 cells were co-transfected with the MT1-F and MT1PEX-F at indicated DNA amount ratios. Next, purified proMMP-2 (0.25 μg/ml) in a serum-free medium was reacted with the resulting cells at 37° C. for 18 hrs. MMP-2 in the culture supernatant was analyzed by gelatin zymography, and the cell lysates were subjected to Western blotting analysis using a monoclonal anti-FLAG M2 antibody.
(§4) Next, to determine if MT1PEX-F affects the catalytic activity of MT1-MMP on the cell surface or not, tests for gelatin degrading activity and binding capacity to TIMP-2 were conducted using cells transfected in the same incubator. As shown in FIGS. 12 through 14, CHO-K1 cells were transfected with an expression vector for MT1-F, MT1-F/MT1PEX-F or MT1Cat-F, or a vector alone (Mock). The cells were then treated with trypsin, and separately seeded to: DQ™ gelatin-coated cover slips for testing the proteolytic activity (FIG. 13); and 24-well plates for TIMP-2 binding assay (FIG. 12) and for the activation of proMMP-2 (FIG. 14). Transfected cells on the DQ™ gelatin-coated cover slip as shown in FIG. 13 were incubated in a medium at 37° C. for 18 hrs, and the generated fluorescence was analyzed using confocal microscopy. Transfected cells on the 24-well plate as shown in FIG. 12 were incubated with 25 nM ^125I-labeled TIMP-2 in the presence or absence of BB-94 (50 μM) at 0° C. for 1 hr. MT1-MMP specific binding was calculated by subtracting the datum obtained in the presence of BB-94 (50 μM) from each datum derived from the corresponding experiments. […] DQ™ gelatin is a fluorescence-quenched gelatin, which fluoresces upon proteolytic cleavage. […]

MT1-MMP [2] = target: T1, MT1-MMP (Homo sapiens, UniProt P50281); experiment: as above; format: cell-based
T1 construct: expressed in transfected cells
Protocol: as §1, §2, §3, §4

HT1080 cells = experiment: Matrigel invasion assay (modified Boiden-chamber method); format: cell-based, human; details: HT1080 cells transfected with the expression plasmid (with GFP), 14 hrs (FIG. 15)
Protocol: Matrigel Invasion Chambers were prepared according to the manufacturer's instructions (Becton Dickinson Labware, MA, USA) by coating, with […] of Matrigel, the 8 μm-pore sized membrane of the culture inserts for 24-well plates (Falcon). A 0.5 ml aliquot of transfected HT1080 cell suspension at 0.1×10^5/ml was seeded on the upper chamber and incubated at 37° C. in a humidified chamber. Hepatocyte growth factor (Toyobo; 10 ng/ml) was added to the lower chamber as a chemo-attractant. After 14 hrs of incubation, cells remaining on the upper surface of the membrane were removed, and cells on the lower surface were fixed with 3% para-formaldehyde in PBS. Green fluorescent protein (GFP)-positive cells that had invaded to the lower, surface were counted using fluorescence microscopy (×40).
Cells were transiently transfected with a vector for MT1PEX-F, together with an expression vector for green fluorescent protein (GFP), and GFP-positive invading cells were counted under fluorescence microscopy. HT1080 cells were co-transfected with expression vectors for MT1PEX-F and GFP, or with an expression vector for GFP alone. The cells were assayed for Matrigel invasion as described below. The modified Boiden-chamber method was carried out. […]
TIMP-2 at 0.5 μg/ml was added to the upper and lower chambers. GFP-positive cells on the surface of the lower chamber were counted using fluorescence microscopy. […]

Substance	activation of proMMP-2 by cells expressing the mutant (MT1-MMP [1])	effect on the activation of proMMP-2 (MT1-MMP [2]; CHO-K1 cells co-transfected with MT1-F and MT1PEX-F (FIG. 14))	effect on the activation of proMMP-2 by MT1-F (MT1-MMP [2]; COS1 cells co-transfected at indicated DNA ratios, proMMP-2 0.25 μg/ml, 37° C., 18 hrs (FIGS. 11 and 28))	suppression of Matrigel invasion (HT1080 cells) [%]
MT1Cat-F: PEX-deleted FLAG-tagged MT1-MMP (Δ Ile318-Gly535)	did not activate at all			
MT1PEX-F: Catalytic domain-deleted FLAG-tagged MT1-MMP (Δ Tyr112-Pro312), expressed by transfection		completely inhibited the activation of proMMP-2	inhibited the activation of proMMP-2 by MT1-F, in dependence upon the expression level	70
